Here are results for three molecules from patent publication US8420311B2, “Method to block the infection by flaviviruses, molecules and uses” (Centro de Ingenieria Genetica y Biotecnologia, priority 2006, dated 2013).

Where a SMILES comes first, the peptide text is derived from it. Bridges are numbered along the chain shown (N, C = ends). Where no end group is shown, it is not given here.

One assay has as its system DV4. The format is cell-based, dengue virus. The settings on record: peptides 0.1 mg/ml; Vero cells. An excerpt:
(§1) DIII has one of the most variable regions of the exposed surface of protein E. In fact, one of the antigenic characteristics of this domain is that the antibodies obtained against this region are predominantly serotype-specific (Roehrig J T, Bolin R A, Kelly R G (1998) Monoclonal antibody mapping of the envelope glycoprotein of the dengue 2 virus, Jamaica Virology 246:317-28). However, during the inhibition assay with different DV serotypes, the peptides display a wide-spectrum inhibitory activity, efficiently inhibiting the infection of strains of the homologous, as well as of the heterologous serotypes (table 3). It is important to notice that at the assayed concentration (0.1 mg/ml) all the peptides in all the conditions, with the exception of peptide HIII4CL for DV3, produced higher than 50% inhibition levels.

The next assay deals with DV3. The format is cell-based, dengue virus. The settings on record: for degree of reduction of the number of viral plaques, DV3: peptides 0.1 mg/ml, Vero cells.
Text: as §1

Another assay relates to DV2. The format is cell-based, dengue virus. Conditions: peptides 0.1 mg/ml; Vero cells. Here is the method:
(§2) FIG. 17. Inhibition of the infection of Vero cells with DV1 and DV2. (A) Six-well plates with a monolayer at approximately 90% confluence were incubated for 30 min. at 37° C. with dilutions of the peptides in MEM medium. A dilution of either DV1 strain West Pac 74 or DV2 strain S16803 was then added, calculated so as to obtain an average of 100 lytic plaques per well, and the plates were incubated for 30 min. at 37° C. with the virus/peptide mixture. After the incubation the cells were washed twice, received the addition of MEM medium supplemented with non-essential amino acids, 1% fetal calf serum, 1% CMC, and finally were incubated for 5 days at 37° C. under a CO2 atmosphere. (B) Inhibitory effect of the peptides at 100 μMol/L. NRpep: Non-related peptide. Data on the sequence of the peptides 3H5pept (SEQ ID. 27), pepDIII-1 (SEQ ID. 28), HIII2CL (SEQ ID. 5) and HIII3CL (SEQ ID. 7), as well as on the region they span on DIII from DV, can be obtained from FIG. 11. The calculation of the inhibition percentages is described in Materials and Methods. (C) Inhibition of DV2 infection by using varying peptide concentrations. The viral plaques were visualized by staining with Naphtol Blue Black. Cell control: Untreated cells. Virus control: Cells incubated with the virus, but without peptide.
as §1

The subject of another assay is DV1. The format is cell-based, dengue virus. The settings on record: peptides 0.1 mg/ml; Vero cells. The procedure: as §2, §1
In assay [1] the target is T1, DIIIE2J (DIII from protein E of DV2) (Dengue virus type 2, UniProt P07564).
T1 construct: made in house; host or cells: Escherichia coli BL21(DE3)
T1 sequence (P07564 568-687, looked up, natural form): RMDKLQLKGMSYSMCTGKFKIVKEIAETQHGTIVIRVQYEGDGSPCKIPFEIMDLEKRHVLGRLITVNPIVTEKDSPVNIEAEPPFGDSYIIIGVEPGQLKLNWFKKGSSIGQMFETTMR
Kind of assay: Direct binding between DIIIE2J and A2M measured by Biacore. The settings on record: A2M 0.3 to 3 μMol/L. Also noted: species or system DV2 strain Jamaica 1409. The procedure: FIG. 6. Direct binding between DIIIE2J and A2M, measured by Biacore. Response curves obtained during and after the injection of (B) Monoclonal antibodies against DV serotype 2 (3H5) and against all FV (4G2); (C) Polyclonal mouse antibody preparations obtained by immunization with DV1 and DV2, including pre-immune sera and (D) A2M dilutions, at concentrations from 0.3 μMol/L to 3 μMol/L. The run was performed on PBS pH 7.4 at 25° C. The different A2M dilutions were loaded at a flow of 5 μL/min for 20 min. The response is represented in resonance units (RU) corrected for unspecific binding using the response from the channel without immobilized protein (less than 5% of the specific signal).
A cm5 chip (Biacore, Sweden) was used for the covalent immobilization of the DIIIE2J and LRP1 proteins. The immobilization was carried out at 25° C., with a flow of 5 μL/min and using HBS (Biacore, Sweden) as running buffer. The surface of the chip was activated by loading 35 μL of 0.2 Mol/L […] (EDC) and 0.05 Mol/L N-hydroxysuccinimide (NHS). Afterwards the proteins, dissolved in 10 mM sodium acetate buffer pH 4.5, were loaded into the system. At the end of the immobilization, 35 μL of 1 M ethanolamine pH 8 were loaded into the system in order to block any remaining free activated groups. The channel to be used as a negative control in each case received only the activating injections with the EDC:NHS solution and the blocking with ethanolamine, employing the same flow and injection volume. The results were analyzed using the BIAevaluation ver. 4.1 software application package (Biacore, Sweden).
In order to estimate the strength of the interaction between DIIIE2J and human A2M, 1600 RU of DIIIE2J were covalently immobilized on a CM5 chip (channel 1, FIG. 6A) (Biacore, Sweden), following the procedure described in the Materials and Methods section. […]
(In general: SPR reads the build-up and loss of mass on a sensor chip optically.)

On to `CC[C@H](C)[C@@H]1NC(=O)[C@H](Cc2ccc(O)cc2)NC(=O)[C@H](CO)NC(=O)[C@@H](N)CSSC[C@@H](C(N)=O)NC(=O)[C@H](Cc2c[nH]c3ccccc23)NC(=O)[C@H](Cc2c[nH]cn2)NC(=O)[C@H](CC(C)C)NC(=O)[C@H]([C@@H](C)O)NC(=O)[C@H](CC(C)C)NC(=O)[C@H](C)NC(=O)[C@H](CO)NC(=O)[C@H](CC(N)=O)NC(=O)CNC(=O)[C@H](C(C)C)NC(=O)CNC(=O)[C@H]([C@@H](C)CC)NC(=O)[C@H](C(C)C)NC1=O` [HDIII4CL] (H-CSYIVIGVGNSALTLHWC-NH2; disulfide 1-18; N-terminus assumed), for which the “degree of reduction of the number of viral plaques, DV4” value in the assay on DV4 is recorded as “+ (50% or higher decrease)”. Moreover, the “inhibition level, DV3” value in the assay on DV3 (0.1 mg/ml) was at most 50%. Also, the “degree of reduction of the number of viral plaques, DV3” value in the assay with DV3 is “+/− (10-50% decrease in the number of plaques)”. In the assay with DV2, the “degree of reduction of the number of viral plaques, DV2” value is “+ (50% or higher decrease)”. Further, in the assay with DV1, the “degree of reduction of the number of viral plaques, DV1” value is recorded as “+ (50% or higher decrease)”.

For “HDIII1CL: cyclic synthetic peptide based on the FG beta hairpin of DIII of protein E from DV1, SEQ ID. 6 (CSYIVVGAGEKALKLSWC-NH2; disulfide 1-18 (inferred))”, the “degree of reduction of the number of viral plaques, DV4” value in the assay with DV4 was “+ (50% or higher decrease)”. Besides, the “degree of reduction of the number of viral plaques, DV3” value in the assay with DV3 is recorded as “+ (50% or higher decrease)”. Also, the “degree of reduction of the number of viral plaques, DV2” value with DV2 is on record as “+ (50% or higher decrease)”. In addition, in the assay with DV1, the “degree of reduction of the number of viral plaques, DV1” value is reported as “+ (50% or higher decrease)”.

B1: A2M: human Alfa 2-macroglobulin purified from human plasma, Seq. ID. 2 (protein, listed as Homo sapiens)
chain: MGKNKLLHPSLVLLLLVLLPTDASVSGKPQYMVLVPSLLHTETTEKGCVLLSYLNETVTVSASLESVRGNRSLFTDLEAENDVLHCVAFAVPKSSSNEEVMFLTVQVKGPTQEFKKRTTVMVKNEDSLVFVQTDKSIYKPGQTVKFRVVSMDENFHPLNELIPLVYIQDPKGNRIAQWQSFQLEGGLKQFSFPLSSEPFQGSYKVVVQKKSGGRTEHPFTVEEFVLPKFEVQVTVPKIITILEEEMNVSVCGLYTYGKPVPGHVTVSICRKYSDASDCHGEDSQAFCEKFSGQLNSHGCFYQQVKTKVFQLKRKEYEMKLHTEAQIQEEGTVVELTGRQSSEITRTITKLSFVKVDSHFRQGIPFFGQVRLVDGKGVPIPNKVIFIRGNEANYYSNATTDEHGLVQFSINTTNVMGTSLTVRVNYKDRSPCYGYQWVSEEHEEAHHTAYLVFSPSKSFVHLEPMSHELPCGHTQTVQAHYILNGGTLLGLKKLSFYYLIMAKGGIVRTGTHGLLVKQEDMKGHFSISIPVKSDIAPVARLLIYAVLPTGDVIGDSAKYDVENCLANKVDLSFSPSQSLPASHAHLRVTAAPQSVCALRAVDQSVLLMKPDAELSASSVYNLLPEKDLTGFPGPLNDQDDEDCINRHNVYINGITYTPVSSTNEKDMYSFLEDMGLKAFTNSKIRKPKMCPQLQQYEMHGPEGLRVGFYESDVMGRGHARLVHVEEPHTETVRKYFPETWIWDLVVVNSAGVAEVGVTVPDTITEWKAGAFCLSEDAGLGISSTASLRAFQPFFVELTMPYSVIRGEAFTLKATVLNYLPKCIRVSVQLEASPAFLAVPVEKEQAPHCICANGRQTVSWAVTPKSLGNVNFTVSAEALESQELCGTEVPSVPEHGRKDTVIKPLLVEPEGLEKETTFNSLLCPSGGEVSEELSLKLPPNVVEESARASVSVLGDILGSAMQNTQNLLQMPYGCGEQNMVLFAPNIYVLDYLNETQQLTPEVKSKAIGYLNTGYQRQLNYKHYDGSYSTFGERYGRNQGNTWLTAFVLKTFAQARAYIFIDEAHITQALIWLSQRQKDNGCFRSSGSLLNNAIKGGVEDEVTLSAYITIALLEIPLTVTHPVVRNALFCLESAWKTAQEGDHGSHVYTKALLAYAFALAGNQDKRKEVLKSLNEEAVKKDNSVHWERPQKPKAPVGHFYEPQAPSAEVEMTSYVLLAYLTAQPAPTSEDLTSATNIVKWITKQQNAQGGFSSTQDTVVALHALSKYGAATFTRTGKAAQVTIQSSGTFSSKFQVDNNNRLLLQQVSLPELPGEYSMKVTGEGCVYLQTSLKYNILPEKEEFPFALGVQTLPQTCDEPKAHTSFQISLSVSYTGSRSASNMAIVDVKMVSGFIPLKPTVKMLERSNHVSRTEVSSNHVLIYLDKVSNQTLSLFFTVLQDVPVRDLKPAIVKVYDYYETDEFAIAEYNAPCSKDLGNA
For the molecule B1, the “nature of the interaction between both proteins” value in assay [1] was “saturable and reversible”. In addition, the Kd in assay [1] (immobilized DIIIE2J, PBS pH 7.4 at 25° C., read-out: apparent Kd) was about 100 nM.
